# From patent publication US20220088016A1, “CANCER TREATMENT USING MULTI-TARGETED KINASE INHIBITOR IN COMBINATION OF PROTEIN KINASE BIOMARKERS” (ZHEJIANG CROWNMAB BIOTECH CO. LTD., priority 2019, published 2022)
# “And” between values parts separate entries of the source, which are not always exact repeats. Equal entries are not always repeated.
# Key:
# MC-38 tumor = assay: Subcutaneous MC-38 murine colon cancer model; assay type: in vivo, mouse; conditions: 20 mg/kg first 11 days, then 10 mg/kg
# Description: The MC-38 tumor cells were maintained in vitro with RPMI1640 medium supplemented with 10% fetal bovine serum at 37° C. in an atmosphere of 5% CO2 in air. Each mouse was inoculated subcutaneously after shaving at the right flank region with MC-38 tumor cells (1×10e6) in 0.1 mL of PBS for tumor development. The randomization started when the mean tumor size reached approximately 100 mm^3. Group 1 mice were treated vehicle and group 2 mice were treated 20 mg/kg CBT-102 at first 11 days and reduced to 10 mg/kg afterwards.
# MAP3K2 = MAP3K2 (Homo sapiens, UniProt Q9Y2U5); assay: Kinase profiling; assay type: binding; conditions: read-out: % Ctrl @ 1000 nM
# CSF1R-autoinhibited = CSF1R-autoinhibited (Homo sapiens, UniProt P07333); assay: Kinase profiling; assay type: binding; conditions: read-out: % Ctrl @ 1000 nM
# RIPK1 = RIPK1 (Homo sapiens, UniProt Q13546); assay: Kinase profiling; assay type: binding; conditions: read-out: % Ctrl @ 1000 nM
# PRKCI = PRKCI (Homo sapiens, UniProt P41743); assay: Kinase profiling; assay type: binding; conditions: read-out: % Ctrl @ 1000 nM
# CSK = CSK (Homo sapiens, UniProt P41240); assay: Kinase profiling; assay type: binding; conditions: read-out: % Ctrl @ 1000 nM
# SYK = SYK (Homo sapiens, UniProt P43405); assay: Kinase profiling; assay type: binding; conditions: read-out: % Ctrl @ 1000 nM
# SRC = SRC (Homo sapiens, UniProt P12931); assay: Kinase profiling; assay type: binding; conditions: read-out: % Ctrl @ 1000 nM
# EPHA6 = EPHA6 (Homo sapiens, UniProt Q9UF33); assay: Kinase profiling; assay type: binding; conditions: read-out: % Ctrl @ 1000 nM
# MKNK1 = biological target: T1, MKNK1 (Homo sapiens, UniProt Q9BUB5); assay: Kinase profiling; assay type: binding; conditions: read-out: % Ctrl @ 1000 nM
# T1 construct: T7 phage fusion (stated for most kinases of the panel only); made in house; host or cells: T7 phage in E. coli (BL21-derived) or HEK-293 cells
# RET = RET (Homo sapiens, UniProt P07949); assay: Kinase profiling; assay type: binding; conditions: read-out: % Ctrl @ 1000 nM
# DCAMKL1 = DCAMKL1 (Homo sapiens, UniProt O15075); assay: Kinase profiling; assay type: binding; conditions: read-out: % Ctrl @ 1000 nM
# MARK2 = MARK2 (Homo sapiens, UniProt Q7KZI7); assay: Kinase profiling; assay type: binding; conditions: read-out: % Ctrl @ 1000 nM
# PRKCH = PRKCH (Homo sapiens, UniProt P24723); assay: Kinase profiling; assay type: binding; conditions: read-out: % Ctrl @ 1000 nM
# DCAMKL3 = DCAMKL3 (Homo sapiens, UniProt Q9C098); assay: Kinase profiling; assay type: binding; conditions: read-out: % Ctrl @ 1000 nM
# EPHA3 = EPHA3 (Homo sapiens, UniProt P29320); assay: Kinase profiling; assay type: binding; conditions: read-out: % Ctrl @ 1000 nM
# PKAC-beta = PKAC-beta (Homo sapiens, UniProt P22694); assay: Kinase profiling; assay type: binding; conditions: read-out: % Ctrl @ 1000 nM
# CASK = CASK (Homo sapiens, UniProt O14936); assay: Kinase profiling; assay type: binding; conditions: read-out: % Ctrl @ 1000 nM
# NDR2 = biological target: T2, NDR2 (Homo sapiens, UniProt Q9Y2H1); assay: Kinase profiling; assay type: binding; conditions: read-out: % Ctrl @ 1000 nM
# T2 construct: T7 phage fusion (said for most assays); made in house
# CDC2L1 = CDC2L1 (Homo sapiens, UniProt P21127); assay: Kinase profiling; assay type: binding; conditions: read-out: % Ctrl @ 1000 nM
# FLT3 (K663Q) = FLT3 (K663Q) (Homo sapiens, UniProt P36888, K663Q); assay: Kinase profiling; assay type: binding; conditions: read-out: % Ctrl @ 1000 nM
# PLK4 = PLK4 (Homo sapiens, UniProt O00444); assay: Kinase profiling; assay type: binding; conditions: read-out: % Ctrl @ 1000 nM
# RAW264.7 cells = assay: Proliferation of RAW264.7 cells (CTG assay); assay type: cell-based; conditions: RAW264.7 (CSF-1 independent, negative control), 3 days
# Description: Two syngeneic cell lines M-NFS-60 and RAW264.7 and engineered BaF3 hCSFIR cell line were starved and then tested with CBT-102 and other test articles for 3 days in the temperature of 37° C., 5% CO2 and 95% humidity. The cell viability was then detected using CTG assay. The software of GraphPad Prism was used to calculate IC50.
# CSF-1 dependent mouse myeloid M-NFS-60 cells were employed as target cells while a CSF-1 independent cell line Raw 264.7 was used as a negative control. In addition to CBT-102, the study also included 3 CSF-1R inhibitors: GW2580, BLZ945 and Pexidartinib.
# CLK3 = CLK3 (Homo sapiens, UniProt P49761); assay: Kinase profiling; assay type: binding; conditions: read-out: % Ctrl @ 1000 nM
# PIM1 = PIM1 (Homo sapiens, UniProt P11309); assay: Kinase profiling; assay type: binding; conditions: read-out: % Ctrl @ 1000 nM
# ACVR1B = ACVR1B (Homo sapiens, UniProt P36896); assay: Kinase profiling; assay type: binding; conditions: read-out: % Ctrl @ 1000 nM
# [1] = biological target: EGFR (L747-E749del, A750P) (Homo sapiens, UniProt P00533, A750P/DEL747-749); assay: Kinase profiling; assay type: binding; conditions: read-out: % Ctrl @ 1000 nM
# ULK1 = ULK1 (Homo sapiens, UniProt O75385); assay: Kinase profiling; assay type: binding; conditions: read-out: % Ctrl @ 1000 nM
# EPHA2 = EPHA2 (Homo sapiens, UniProt P29317); assay: Kinase profiling; assay type: binding; conditions: read-out: % Ctrl @ 1000 nM
# p38-gamma = p38-gamma (Homo sapiens, UniProt P53778); assay: Kinase profiling; assay type: binding; conditions: read-out: % Ctrl @ 1000 nM
# CDK8 = CDK8 (Homo sapiens, UniProt P49336); assay: Kinase profiling; assay type: binding; conditions: read-out: % Ctrl @ 1000 nM
# TNNI3K = TNNI3K (Homo sapiens, UniProt Q59H18); assay: Kinase profiling; assay type: binding; conditions: read-out: % Ctrl @ 1000 nM
# CSK, sequence (P41240 whole entry): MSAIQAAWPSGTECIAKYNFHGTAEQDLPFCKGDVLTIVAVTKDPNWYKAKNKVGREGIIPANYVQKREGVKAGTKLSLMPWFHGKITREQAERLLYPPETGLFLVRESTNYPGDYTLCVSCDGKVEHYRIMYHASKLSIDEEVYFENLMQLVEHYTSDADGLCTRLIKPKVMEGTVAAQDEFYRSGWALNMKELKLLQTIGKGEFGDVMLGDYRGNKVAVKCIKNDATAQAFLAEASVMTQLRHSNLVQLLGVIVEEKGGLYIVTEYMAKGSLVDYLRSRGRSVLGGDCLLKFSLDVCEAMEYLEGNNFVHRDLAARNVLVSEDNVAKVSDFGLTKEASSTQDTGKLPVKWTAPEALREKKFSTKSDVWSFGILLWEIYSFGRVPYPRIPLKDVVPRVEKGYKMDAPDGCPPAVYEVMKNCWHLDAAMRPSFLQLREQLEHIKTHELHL
# CDC2L1, sequence (P21127 whole entry): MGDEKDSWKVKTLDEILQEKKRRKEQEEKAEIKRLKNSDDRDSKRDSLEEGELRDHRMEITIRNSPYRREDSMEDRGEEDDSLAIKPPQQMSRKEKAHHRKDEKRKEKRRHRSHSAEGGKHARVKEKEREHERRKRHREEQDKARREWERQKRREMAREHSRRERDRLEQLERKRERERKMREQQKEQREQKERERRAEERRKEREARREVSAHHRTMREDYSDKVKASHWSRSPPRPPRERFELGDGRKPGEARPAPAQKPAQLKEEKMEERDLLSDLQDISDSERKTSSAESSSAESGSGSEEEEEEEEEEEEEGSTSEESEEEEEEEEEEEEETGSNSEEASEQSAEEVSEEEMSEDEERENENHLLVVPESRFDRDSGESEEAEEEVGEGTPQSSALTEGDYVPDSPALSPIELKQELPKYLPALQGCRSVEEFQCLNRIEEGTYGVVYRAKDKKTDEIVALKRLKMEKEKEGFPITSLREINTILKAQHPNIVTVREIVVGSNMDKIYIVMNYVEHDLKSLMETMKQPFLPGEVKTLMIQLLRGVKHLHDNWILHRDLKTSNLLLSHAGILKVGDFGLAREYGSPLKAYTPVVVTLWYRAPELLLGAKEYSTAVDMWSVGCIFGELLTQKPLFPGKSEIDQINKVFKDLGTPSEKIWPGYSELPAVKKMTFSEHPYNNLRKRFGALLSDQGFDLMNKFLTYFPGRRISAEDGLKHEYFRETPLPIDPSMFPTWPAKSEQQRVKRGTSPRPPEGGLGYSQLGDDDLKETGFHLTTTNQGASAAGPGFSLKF
# MARK2, sequence (Q7KZI7 whole entry): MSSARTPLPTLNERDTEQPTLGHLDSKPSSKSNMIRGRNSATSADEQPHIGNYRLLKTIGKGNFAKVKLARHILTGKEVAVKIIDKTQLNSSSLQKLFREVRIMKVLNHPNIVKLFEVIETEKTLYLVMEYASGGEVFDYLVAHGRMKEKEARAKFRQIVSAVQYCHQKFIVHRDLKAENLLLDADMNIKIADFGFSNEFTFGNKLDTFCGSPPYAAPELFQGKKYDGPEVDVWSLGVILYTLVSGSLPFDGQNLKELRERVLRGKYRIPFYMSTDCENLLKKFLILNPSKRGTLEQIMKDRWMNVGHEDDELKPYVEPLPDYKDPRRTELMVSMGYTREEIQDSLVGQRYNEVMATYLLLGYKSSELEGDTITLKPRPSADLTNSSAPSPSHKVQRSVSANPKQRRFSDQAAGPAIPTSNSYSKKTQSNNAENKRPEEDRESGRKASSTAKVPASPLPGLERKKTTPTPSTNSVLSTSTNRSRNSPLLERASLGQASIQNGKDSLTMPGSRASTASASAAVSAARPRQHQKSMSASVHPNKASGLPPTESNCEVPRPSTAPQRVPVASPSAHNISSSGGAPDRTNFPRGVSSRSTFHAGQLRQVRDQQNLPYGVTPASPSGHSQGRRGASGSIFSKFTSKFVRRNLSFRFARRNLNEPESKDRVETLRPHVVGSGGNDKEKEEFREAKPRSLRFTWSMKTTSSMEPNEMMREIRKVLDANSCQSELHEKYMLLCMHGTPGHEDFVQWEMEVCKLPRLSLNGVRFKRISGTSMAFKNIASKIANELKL
# CLK3, sequence (P49761 whole entry): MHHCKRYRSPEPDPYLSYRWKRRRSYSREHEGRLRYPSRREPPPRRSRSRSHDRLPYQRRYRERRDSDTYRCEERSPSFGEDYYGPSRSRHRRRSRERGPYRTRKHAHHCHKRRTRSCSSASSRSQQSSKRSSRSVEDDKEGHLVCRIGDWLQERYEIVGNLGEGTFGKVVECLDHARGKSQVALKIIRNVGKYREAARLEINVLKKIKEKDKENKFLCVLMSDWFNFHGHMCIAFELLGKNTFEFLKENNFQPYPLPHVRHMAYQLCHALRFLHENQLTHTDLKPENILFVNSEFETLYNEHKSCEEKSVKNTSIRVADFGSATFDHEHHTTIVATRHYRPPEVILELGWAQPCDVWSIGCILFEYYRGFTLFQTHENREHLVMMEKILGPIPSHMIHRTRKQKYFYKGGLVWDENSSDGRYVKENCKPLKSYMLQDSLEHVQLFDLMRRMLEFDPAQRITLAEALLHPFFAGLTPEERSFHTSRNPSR
# DCAMKL3, sequence (Q9C098 whole entry): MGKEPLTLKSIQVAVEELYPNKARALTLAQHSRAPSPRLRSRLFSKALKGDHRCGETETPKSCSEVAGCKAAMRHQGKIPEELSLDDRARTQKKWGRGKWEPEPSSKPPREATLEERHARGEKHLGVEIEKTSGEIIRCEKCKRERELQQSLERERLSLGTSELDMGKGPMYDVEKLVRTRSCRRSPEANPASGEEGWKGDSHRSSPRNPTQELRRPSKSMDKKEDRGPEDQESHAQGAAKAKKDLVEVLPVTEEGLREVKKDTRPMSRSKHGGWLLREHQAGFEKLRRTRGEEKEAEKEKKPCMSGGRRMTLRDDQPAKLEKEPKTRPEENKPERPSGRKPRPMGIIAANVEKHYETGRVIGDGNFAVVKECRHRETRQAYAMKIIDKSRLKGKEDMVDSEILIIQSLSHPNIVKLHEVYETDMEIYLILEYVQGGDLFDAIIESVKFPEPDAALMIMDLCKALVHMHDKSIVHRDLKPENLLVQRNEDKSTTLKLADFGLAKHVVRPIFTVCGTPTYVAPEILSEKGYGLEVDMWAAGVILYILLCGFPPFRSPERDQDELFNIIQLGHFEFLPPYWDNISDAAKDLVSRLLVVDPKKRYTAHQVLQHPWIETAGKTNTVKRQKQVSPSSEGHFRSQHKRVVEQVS
# EGFR (L747-E749del, A750P), sequence (P00533 with tags, fused parts or gaps DEL747-749/A750P): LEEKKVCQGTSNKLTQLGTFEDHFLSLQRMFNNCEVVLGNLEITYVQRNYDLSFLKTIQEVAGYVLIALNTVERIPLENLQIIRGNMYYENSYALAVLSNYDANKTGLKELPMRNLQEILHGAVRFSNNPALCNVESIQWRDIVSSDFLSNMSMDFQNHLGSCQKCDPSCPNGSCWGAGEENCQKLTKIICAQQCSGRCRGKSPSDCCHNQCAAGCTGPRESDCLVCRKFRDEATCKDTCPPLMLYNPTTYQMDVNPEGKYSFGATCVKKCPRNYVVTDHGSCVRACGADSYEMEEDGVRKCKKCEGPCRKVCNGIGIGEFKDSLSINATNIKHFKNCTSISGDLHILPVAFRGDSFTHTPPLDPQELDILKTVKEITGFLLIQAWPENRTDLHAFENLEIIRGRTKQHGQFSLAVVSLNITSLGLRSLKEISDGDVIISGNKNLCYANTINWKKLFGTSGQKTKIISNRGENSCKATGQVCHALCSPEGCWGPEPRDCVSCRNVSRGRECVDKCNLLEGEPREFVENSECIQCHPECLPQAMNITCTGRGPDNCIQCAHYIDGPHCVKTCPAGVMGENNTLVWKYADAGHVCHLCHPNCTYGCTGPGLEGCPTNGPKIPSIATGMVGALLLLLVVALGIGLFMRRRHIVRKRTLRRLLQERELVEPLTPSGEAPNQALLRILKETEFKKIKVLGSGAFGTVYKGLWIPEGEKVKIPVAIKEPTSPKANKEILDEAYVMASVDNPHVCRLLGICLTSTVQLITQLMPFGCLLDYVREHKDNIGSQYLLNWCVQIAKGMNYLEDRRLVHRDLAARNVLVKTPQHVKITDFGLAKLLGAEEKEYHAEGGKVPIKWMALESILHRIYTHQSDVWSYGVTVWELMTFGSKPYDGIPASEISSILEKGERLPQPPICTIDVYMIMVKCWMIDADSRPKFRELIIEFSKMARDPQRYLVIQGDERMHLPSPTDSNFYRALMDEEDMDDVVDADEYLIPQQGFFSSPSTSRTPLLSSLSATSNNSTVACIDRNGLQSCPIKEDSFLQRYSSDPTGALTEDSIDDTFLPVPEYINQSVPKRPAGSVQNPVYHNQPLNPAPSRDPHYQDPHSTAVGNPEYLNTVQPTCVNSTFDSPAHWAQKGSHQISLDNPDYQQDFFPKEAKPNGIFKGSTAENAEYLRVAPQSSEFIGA
# p38-gamma, sequence (P53778 whole entry): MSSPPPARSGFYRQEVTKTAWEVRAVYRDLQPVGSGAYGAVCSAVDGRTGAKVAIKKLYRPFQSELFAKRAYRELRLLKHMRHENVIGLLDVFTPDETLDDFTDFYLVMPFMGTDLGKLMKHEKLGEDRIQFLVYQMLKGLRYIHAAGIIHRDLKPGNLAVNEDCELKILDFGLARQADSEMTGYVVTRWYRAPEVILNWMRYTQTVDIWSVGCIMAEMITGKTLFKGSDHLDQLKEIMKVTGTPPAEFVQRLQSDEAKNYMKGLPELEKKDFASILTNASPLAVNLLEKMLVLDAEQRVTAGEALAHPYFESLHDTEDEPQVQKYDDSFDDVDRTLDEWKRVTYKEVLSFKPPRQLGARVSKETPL
# PIM1, sequence (P11309 whole entry): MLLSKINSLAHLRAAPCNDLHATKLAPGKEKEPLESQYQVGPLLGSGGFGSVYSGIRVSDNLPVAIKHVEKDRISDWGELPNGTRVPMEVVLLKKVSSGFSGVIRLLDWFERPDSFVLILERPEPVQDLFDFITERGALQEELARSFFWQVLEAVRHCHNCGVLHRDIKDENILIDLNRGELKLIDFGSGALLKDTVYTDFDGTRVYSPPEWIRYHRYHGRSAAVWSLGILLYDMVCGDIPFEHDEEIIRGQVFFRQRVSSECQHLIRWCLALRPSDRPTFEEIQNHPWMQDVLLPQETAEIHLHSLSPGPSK
compound,measurement,setting,value
Cc1cc(Oc2cc(NC(=O)C3CC3)ncn2)ccc1NC(=O)Nc1ccc(Cl)c(C(F)(F)F)c1 [CBT-102],Tumor Size on day34,MC-38 tumor; Day34 (PG-D21),454.63 mm^3 and 454.63 ± 60.72 mm^3
same,T/C,MC-38 tumor; day34,20.09%
same,TGI,"MC-38 tumor; day34, vs vehicle",79.91%
same,remaining activity at 1 µM,MAP3K2,90%
same,remaining activity at 1 µM,CSF1R-autoinhibited,60%
same,remaining activity at 1 µM,RIPK1,95%
same,remaining activity at 1 µM,PRKCI,74%
same,remaining activity at 1 µM,CSK,29%
same,remaining activity at 1 µM,SYK,100%
same,remaining activity at 1 µM,SRC,76%
same,remaining activity at 1 µM,EPHA6,2.7%
same,remaining activity at 1 µM,MKNK1,100%
same,remaining activity at 1 µM,RET,0%
same,remaining activity at 1 µM,DCAMKL1,100%
same,remaining activity at 1 µM,MARK2,76%
same,remaining activity at 1 µM,PRKCH,100%
same,remaining activity at 1 µM,DCAMKL3,100%
same,remaining activity at 1 µM,EPHA3,33%
same,remaining activity at 1 µM,PKAC-beta,95%
same,remaining activity at 1 µM,CASK,98%
same,remaining activity at 1 µM,NDR2,100%
same,remaining activity at 1 µM,CDC2L1,36%
same,remaining activity at 1 µM,FLT3 (K663Q),3.9%
same,remaining activity at 1 µM,PLK4,98%
same,IC50,"RAW264.7 cells; Mus musculus, 72 h",22.9 µM
same,Max inh.,RAW264.7 cells,95.44%
same,remaining activity at 1 µM,CLK3,100%
same,remaining activity at 1 µM,PIM1,95%
same,remaining activity at 1 µM,ACVR1B,100%
same,remaining activity at 1 µM,[1],80%
same,remaining activity at 1 µM,ULK1,98%
same,remaining activity at 1 µM,EPHA2,40%
same,remaining activity at 1 µM,p38-gamma,28%
same,remaining activity at 1 µM,CDK8,14%
same,remaining activity at 1 µM,TNNI3K,31%
